Measurements: patent US7763588B2, “Method for increasing cognitive function and neurogenesis” (The Salk Institute for Biological Studies, priority 2003, dated 2010)
Entries after “also recorded” stand apart in the source; their conditions may differ.

Columns and labels:
dentate gyrus [1] = assay: Cell survival and neurogenesis in the dentate gyrus (BrdU labeling, day 38); type: in vivo; conditions: mice that exercise; Mars 20 mg/kg or PBN 30 mg/kg daily
Procedure: (§1) During the first nine days animals also received daily intraperitoneal BrdU injections (Sigma, St. Louis, Mo.); dissolved in 0.9% NaCl, filtered sterile at 0.2 μm, 50 μg/g body weight at 10 mg/ml) to label dividing cells.
(§2) On day 10, 7 animals from each group were given an overdose of anesthetics and perfused transcardially with cold 4% paraformaldehyde in 0.1 M PBS to study the effect of the drugs on cell proliferation. […] On day 38 the remaining mice were perfused.
To confirm neurogenesis, immunohistochemistry for BrdU was performed on a 1:6 series of free-floating 40-μm coronal sections that were pretreated for BrdU immunohistochemistry by denaturing DNA, as described previously by van Praag et al., Procl. Natl. Acad. Sci. USA 96: 13427-13431 (1999), which is incorporated herein by reference in its entirety. The antibody used was mouse anti-BrdU (Boehringer Mannheim, Indianapolis, Ind.) 1:400. To visualize the BrdU-labeled cells, staining for BrdU with the peroxidase method was used (ABC system, with biotinylated donkey anti-mouse antibodies and diaminobenzadine as chromogen; Vector Laboratories, Burlingame, Calif.). Cells were counted at 40× using an upright brightfield microscope (Olympus).
We are currently processing the tissue of the animals that survived for 38 days to assess the effects of the drugs and exercise on the number of newborn neurons. […]

female C57BL/6 mice [2] = assay: Running wheel activity (wheel revolutions); type: in vivo; conditions: runners, wheel about 4 hours daily after injection; Mars 20 mg/kg or PBN 30 mg/kg daily; compared with Runner/Saline
Procedure: (§3) Ninety-six female C57BL/6 mice, ten weeks old were purchased from Harlan SD and housed individually with a reversed day/night cycle: lights on at 10 p.m. and off at 10 a.m. The mice were divided into six groups of 16 mice each: Control/Saline (CS) Control/PBN (CP), Control/Mars (CM), Runner/Saline (RS), Runner/PBN (RP) and Runner/Mars (RM). Runners were moved into a cage with a running wheel (Lafayette Instruments) for 4 hours per day, from 10 a.m. to 2 p.m. The mice received daily injections of saline, N-tert-Butyl-phenylnitrone (PBN, 30 mg/kg) or 3′- and 4′-methylated epicatechin 1:1 (Mars, 20 mg/kg). Mice in the running groups were placed in cages with wheels after drug injection for about 4 hours daily.

female C57BL/6 mice [3] = assay: Morris water maze spatial learning; type: in vivo; conditions: Mars 20 mg/kg or PBN 30 mg/kg daily
Procedure: as §3, with “mg/kg).” for “mg/kg). Mice in the running groups were placed in cages with wheels after drug injection for about 4 hours daily.”
as §2
To assess spatial learning the mice were trained with two trials per day over eight days on the Morris water maze as described by Morris, J. Neurosci. Methods 11: 47-60 (1984), which is incorporated herein by reference in its entirety. The platform was hidden 1 cm below the surface of water, made opaque with white non-toxic paint. The starting points were changed every day. Each trial lasted either until the mouse had found the platform or for a maximum of 40 seconds. All mice were allowed to rest on the platform for 10 seconds at the end of each trial. The latency to the platform, length of swim path and swim speed was recorded semi-automatically by a video tracking system (Ethovision, Noldus).
To assess memory function mice were trained in the water maze for 8 days with 2 trials per day between days 29-36 of the experiment. […] However, when measuring swim speed, there was also a significant difference between the groups (F(5,47)=3.37, p<0.01), raising the possibility that the RM and RP animals performed better due enhanced motor rather than cognitive skills.
To further investigate whether the RM and RP had improved learning, the swimming distance was analyzed for all trials. There was no significant difference between the groups in an overall analysis (F(5,47)=1.55, p=0.19).

dentate gyrus [4] = assay: BrdU-positive cell proliferation in the dentate gyrus (day 10); type: in vivo, mice; conditions: runners, Mars 20 mg/kg or PBN 30 mg/kg daily
Procedure: as §1, §2
To confirm neurogenesis, immunohistochemistry for BrdU was performed on a 1:6 series of free-floating 40-μm coronal sections that were pretreated for BrdU immunohistochemistry by denaturing DNA, as described previously by van Praag et al., Procl. Natl. Acad. Sci. USA 96: 13427-13431 (1999), which is incorporated herein by reference in its entirety. The antibody used was mouse anti-BrdU (Boehringer Mannheim, Indianapolis, Ind.) 1:400. […] Cells were counted at 40× using an upright brightfield microscope (Olympus).
BrdU-positive cells were analyzed in mice that were allowed to survive for the first 10 days of the experiment. At this time point cell proliferation, but not neurogenesis can be assessed, since it takes about a month for a newly born cell to become a neuron (van Praag et al., Nature 415: 1030-1034 (2002), which is incorporated herein by reference in its entirety).

## CC(C)(C)[N+]([O-])=Cc1ccccc1 [PBN, N-tert-Butyl-phenylnitrone]
Dentate gyrus [1]
  neurogenesis: enhances neurogenesis
Female C57BL/6 mice [2]
  number of wheel revolutions: no difference between RS and RP
Female C57BL/6 mice [3]; controls (no running wheel)
  swim speed: no difference between the runners and CP; also recorded: significantly faster than CM
Female C57BL/6 mice [3]; mice that exercise
  spatial memory performance / learning: enhances spatial memory performance; also recorded: enhanced learning
Female C57BL/6 mice [3]; runners, 8 days of testing
  latency to the platform, analysis of variance per day: significantly shorter latencies from day 6 onwards
Female C57BL/6 mice [3]; runners
  swim speed: swam faster than CS and CM animals
Dentate gyrus [4]
  average number of BrdU-labeled cells per section (cell proliferation / cell genesis): the greatest increase; also recorded: more cell genesis in these animals than in all the other groups
